In brackets after ≈: the same amount, converted by molar mass. Like-named read-outs stand apart in the source and are kept apart here. Non-standard residues stand in square brackets, D forms with d. Residues, ends and D or L forms follow the SMILES beside them. Hyp = O=C(O)[C@@H]1C[C@@H](O)CN1; Tle = CC(C)(C)[C@H](N)C(=O)O; Orn = NCCC[C@H](N)C(=O)O
Key:
E. coli BL21 A1 = format: cell-based, Escherichia coli; conditions: BL21, 20 h
How it was run: (§1)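 Broth microdilution in 1% TSB with twofold peptide series, final 128 μg/mL to 62.5 ng/mL, against 5×10^6 bacteria/mL stock suspension added 1:1. Incubated 20 h at 37 °C, growth read by absorbance at 595 nm; MIC is the lowest concentration with no growth, determined in triplicate.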

[1] = system: P. aeruginosa 10 J. Wilson
Experimental: (§2) The minimum inhibitory concentrations (MIC) of the antimicrobial peptides and peptide derivatives were determined in microdilution assays. These used a continuous peptide dilution in sterile flat-bottomed 96-well microtiter plates (polystyrene, Greiner Bio-One GmbH, Frickenhausen, Germany) and a total volume of 100 μL per well. The aqueous peptide or peptidomimetic solutions were diluted with 1% TSB water, to obtain a final concentration of 256 μg/mL. 50 μL of the peptide or peptidomimetic solution was pipetted into the first well of each series and stirred. From this solution, 50 μL was transferred to the second well, stirred and again 50 μL was transferred to the next well, and so on. A double dilution series is obtained, beginning at 256 μg/mL in the first well to 125 ng/mL in the twelfth well. The bacteria, e.g. E. coli BL21 A1, were cultured overnight at 37° C. in nutrient broth (NB, Carl Roth GmbH+Co. KG, Karlsruhe, Germany). 50 μL of a 5×10^6 bacteria/mL suspension in 1% TSB was added to each well of the microtiter plate and thus a final concentration of the peptides or peptidomimetics from 128 μg/mL (well 1) to 62.5 ng/mL (well 12) was established in each series. The plates were incubated at 37° C. for 20 h and then the absorption was measured at 595 nm with a TECAN microtiter plate spectrophotometer (Tecan Trading AG, Mannedorf, Switzerland). The MIC values of all peptides and peptidomimetics were determined in triplicate. Sterile water was used as negative control.
(§3) The tests were in this case carried out in Mueller-Hinton medium (¼ concentrated), which is equivalent to 1% TSB.

[2] = system: S. typhimurium s5 (J. Weiser); conditions: ¼ Muller-Hinton medium
Experimental: as §2, §3

E. coli D31 J. Wilson = conditions: ¼ Muller-Hinton medium
Experimental: as §2, §3

P. aeruginosa 39324 = system: P. aeruginosa 39324
Experimental: as §2, §3

S. saprophyticus 15305 = system: S. saprophyticus 15305
Experimental: as §2, §3

E. coli 045-849 SENTRY = conditions: ¼ Muller-Hinton medium
Experimental: as §2, §3

[3] = system: S. typhimurium ATCC 14028
Experimental: as §2, §3

K. pneumoniae 012-3131 = system: K. pneumoniae 012-3131
Experimental: as §2, §3

E. coli ATCC BAA-457 = conditions: ¼ Muller-Hinton medium
Experimental: as §2, §3

[4] = system: K. pneumoniae K6 ATCC 700603; conditions: ATCC 700603
Experimental: as §2, §3

K. pneumoniae ATCC 27799 = conditions: ATCC 27799
Experimental: as §2, §3

P. mirabilis ATCC 7002 = conditions: ¼ Muller-Hinton medium
Experimental: as §2, §3

[5] = system: S. typhimurium ATCC 700408
Experimental: as §2, §3

P. vulgaris ATCC 6896 = conditions: ¼ Muller-Hinton medium
Experimental: as §2, §3

M. luteus 10240 = assay: Growth inhibition assay (microdilution MIC); format: cell-based, Micrococcus luteus; conditions: 10240, 20 h
How it was run: as §1

[6] = system: bacterial proteases (E. coli BL21 A1 lysate); assay: Stability against bacterial proteases in E. coli lysate; format: in vitro ADME; conditions: E. coli lysate with 0.5 mg/mL protein concentration, 37° C.
Experimental: (§4) For the bacterial lysate, 500 mL of nutrient broth (Carl Roth GmbH+Co. KG, Karlsruhe) was inoculated with E. coli BL21 A1 and incubated overnight at 37° C. 2×250 mL bacterial suspension were centrifuged for 25 min at 5000 rpm and 4° C. in a Beckman Avanti™ J-20-XP centrifuge with JLA-10.500 rotor (Beckman Coulter, Fullerton, U.S.A.). The pellets were each suspended in 30 mL PBS (pH 7.4) and centrifuged again in a Beckman Allegra™ 2IR centrifuge (Beckman Coulter, Fullerton, U.S.A.). The pellets were each suspended in 10 mL PBS and were disrupted with ultrasound (Vibra-cell™ microtip, Fisher Bioblock Scientific, Illkirch, France) 2×5 min (750 W; amplitude 40%; 2 s on/3 s off) on ice. The bacterial lysates were combined and 1 mL aliquots were centrifuged at 15400 rpm for 20 min at 4° C. (Beckman Allegra™). The supernatants were removed and stored at −20° C. The protein content of the bacterial lysate was determined by protein determination according to Bradford.
(§5) A solution of 0.15 μg/mL peptide in bacterial lysate with protein content of 1.5 mg/mL or 0.5 mg/mL was incubated at 37° C. After 0, 30, 60, 120, 240 or 360 min, 200 μL was taken from each and the proteins were precipitated with 50 μL of 15% trichloroacetic acid. Then it was incubated for 10 min at 4° C. and then centrifuged for 5 min at 13000 rpm in a Minispin desktop centrifuge. 210 μL was taken from the supernatant and neutralized with 1 mol/L sodium hydroxide solution. The intact peptide and the degradation products were analyzed by HPLC. 60 μL of 3% aqueous acetonitrile with 0.1% trifluoroacetic acid (TFA) was added to the solution and 250 μL of the mixture was injected. After chromatographic separation, the constituents were identified by MALDI-TOF-MS,
(§6) In order to investigate the stability against bacterial proteases, a lysate was prepared from an overnight culture of E. coli BL21 A1 and the peptides were incubated in it. Using Bradford protein determination, the protein concentration was adjusted to 0.5 or 1.5 mg/mL.

[7] = as above; format: in vitro ADME; conditions: E. coli lysate with 0.5 mg/mL protein concentration; for remaining at 4 h, 0.15 μg/mL: E. coli BL21 A1 lysate (bacterial proteases), pH 7.4, read-out: percentage printed under half-life >240 min (peptide remaining)
Experimental: as §4, §5, §6

[8] = mouse, serum
Experimental: For this, the peptides and peptidomimetics were dissolved in water, mouse serum was added and the peptide concentration was adjusted to 75 μg/mL. While shaking continuously, the mixture was incubated at 37° C. After 0, 30, 60, 120, 240 and 360 minutes, in each case an aliquot was taken and mixed with 15% aqueous trichloroacetic acid (Carl Roth GmbH & Co. KG; Karlsruhe, Germany). After incubation on ice for a further 10 minutes, the precipitated serum proteins were centrifuged off (5 min, 13400 rpm, MiniSpin, Eppendorf AG, Hamburg, Germany). The supernatant was removed, neutralized with 1 mol/L aqueous sodium hydroxide solution (Fluke Chemie GmbH, Buchs, Switzerland) and stored at −20° C. until analysis.
The supernatants were analyzed by RP-HPLC with a linear acetonitrile gradient (Biosolve BV, Valkenswaard, The Netherlands) in the presence of 0.1% trifluoroacetic acid (TFA, UV-grade, Fluka Chemie GmbH, Buchs, Switzerland) as ion-pairing reagent. The fractions were co-crystallized with α-cyanohydroxycinnamic acid (Bruker Daltonik GmbH; Bremen, Germany) as matrix (5.3 mg/mL in 50% acetonitrile in 0.1% aqueous TFA) and were analyzed with a tandem mass spectrometer (MALDI-TOF/TOF-MS, 4700 Proteomics Analyzer; Applied Biosystems GmbH, Weiterstadt, Germany) in the positive-ion reflector mode. The proportion of intact peptides and their degradation products or metabolites could thus be identified and quantified at the individual time points. The control used was 25% aqueous mouse serum, which was analyzed in parallel for the same time intervals.

[9] = system: Pseudomonas aeruginosa DSM 3227
[10] = system: Klebsiella pneumoniae DSM 681
[11] = system: Escherichia coli DSM 10233
[12] = 25% aqueous mouse serum, 37° C., 75 μg/mL peptide
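Throughout, for Half-life in 25% mouse serum: intact peptide left at successive time points measured by reversed-phase HPLC with an acetonitrile gradient in the supernatant after precipitation of serum proteins.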

Compound	MIC E. coli BL21 A1 (E. coli BL21 A1) [µg/mL]	MIC P. aeruginosa 10 J. Wilson [1] [µg/mL]	MIC S. typhimurium s5 (J. Weiser) [2] [µg/mL]	MIC E. coli D31 J. Wilson (E. coli D31 J. Wilson) [µg/mL]	MIC P. aeruginosa 39324 (P. aeruginosa 39324) [µg/mL]	MIC E. coli 045-849 SENTRY (E. coli 045-849 SENTRY) [µg/mL]	MIC S. typhimurium ATCC 14028 [3] [µg/mL]	MIC K. pneumoniae 012-3131 (K. pneumoniae 012-3131) [µg/mL]	MIC E. coli SEQ 102ATCC # BAA-4 57 (E. coli ATCC BAA-457) [µg/mL]	MIC K. pneumoniae K6 ATCC 700603 [4] [µg/mL]	MIC K. pneumoniae ATCC 27799 (K. pneumoniae ATCC 27799) [µg/mL]	MIC P. mirabilis ATCC 7002 (P. mirabilis ATCC 7002)	MIC S. typhimurium ATCC 700408 [5] [µg/mL]	MIC P. vulgaris ATCC 6896 (P. vulgaris ATCC 6896)	MIC M. luteus 10240 (M. luteus 10240) [µg/mL]	Half-life in E. coli lysate [6] [h]	half-life [8] [h]	MIC P. aeruginosa DSM 3227 [9] [µg/mL]	MIC K. pneumoniae DSM 681 [10] [µg/mL]	MIC E. coli DSM 10233 [11] [µg/mL]	also measured
H-GKPRPYSPRPTSHPRPIRV-OH [compound 89]	4	16	1	4	32	2	8	4	2	8	8	>	0.5	>	–	–	–	–	–	–	MIC S. saprophyticus 15305 (S. saprophyticus 15305; 15305): >64 µg/mL
CC(C)C[C@H](NC(=O)[C@H](Cc1ccc(O)cc1)NC(=O)[C@@H]1CCCN1C(=O)[C@@H]1CCCN1C(=O)[C@H](CCCCN)NC(=O)[C@H](CC(=O)O)NC(=O)[C@@H](N)C(C)C)C(=O)N1CCC[C@H]1C(=O)N[C@@H](CCCNC(=N)N)C(=O)N1CCC[C@H]1C(=O)N[C@@H](CCCNC(=N)N)C(=O)N1CCC[C@H]1C(=O)N1CCC[C@H]1C(=O)N[C@@H](CCCNC(=N)N)C(=O)N[C@@H](CCCN)C(=O)N[C@H](C(=O)N[C@@H](Cc1ccc(O)cc1)C(=O)N[C@@H](CC(N)=O)C(=O)N[C@@H](CCCN)C(N)=O)C(C)(C)C [compound 109] (H-VDKPPYLPRPRPPR[Orn][Tle]YN[Orn]-NH2)	4 (≈ 1.73 µM)	–	–	–	–	–	–	–	–	–	–	–	–	–	4 (≈ 1.73 µM)	>4	2.17	–	–	–	remaining at 4 h, 0.15 μg/mL [7]: 90%
CC[C@H](C)[C@H](NC(=O)[C@H](CCCN)NC(=O)[C@H](CCCNC(=N)N)NC(=O)[C@@H]1C[C@@H](O)CN1C(=O)[C@@H]1CCCN1C(=O)[C@H](CCCNC(=N)N)NC(=O)[C@@H]1CCCN1C(=O)[C@H](CCCNC(=N)N)NC(=O)[C@@H]1CCCN1C(=O)[C@H](CC(C)C)NC(=O)[C@H](Cc1ccc(O)cc1)NC(=O)[C@@H]1CCCN1C(=O)[C@@H]1CCCN1C(=O)[C@H](CCCCN)NC(=O)[C@H](CC(=O)O)NC(=O)[C@@H](N)C(C)C)C(=O)N[C@@H](Cc1ccc(O)cc1)C(=O)N[C@@H](CC(N)=O)C(=O)N[C@@H](CCCN)C(N)=O [compound 107] (H-VDKPPYLPRPRP[Hyp]R[Orn]IYN[Orn]-NH2)	4 (≈ 1.72 µM)	–	–	–	–	–	–	–	–	–	–	–	–	–	4 (≈ 1.72 µM)	–	–	>32	4 (≈ 1.72 µM)	16 (≈ 6.89 µM)	–
CC[C@H](C)[C@H](NC(=O)[C@H](CCCN)NC(=O)[C@H](CCCNC(=N)N)NC(=O)[C@@H]1CCCN1C(=O)[C@@H]1CCCN1C(=O)[C@H](CCCNC(=N)N)NC(=O)[C@@H]1CCCN1C(=O)[C@H](CCCNC(=N)N)NC(=O)[C@@H]1CCCN1C(=O)[C@H](CC(C)C)NC(=O)[C@H](Cc1ccc(O)cc1)NC(=O)[C@@H]1CCCN1C(=O)[C@@H]1CCCN1C(=O)[C@H](CCCCN)NC(=O)[C@H](CC(=O)O)NC(=O)[C@@H](N)C(C)C)C(=O)N[C@@H](Cc1ccc(O)cc1)C(=O)N[C@@H](CC(N)=O)C(=O)N[C@@H](CCCN)C(N)=O [compound 72] (H-VDKPPYLPRPRPPR[Orn]IYN[Orn]-NH2)	–	–	–	–	–	–	–	–	–	–	–	–	–	–	–	2.08	2.92	>32	4 (≈ 1.73 µM)	32 (≈ 13.9 µM)	Half-life in 25% mouse serum [12]: >6 h
H-GNNRPVYIPQPRPPHPRL-OH [compound 87]	2	32	0.5	1	64	0.5	0.5	16	1	16	4	>	0.13	>	–	–	–	–	–	–	MIC S. saprophyticus 15305 (S. saprophyticus 15305; ¼ Muller-Hinton medium): >
CC[C@H](C)[C@H](NC(=O)[C@@H]1C[C@@H](O)CN1C(=O)[C@H](CCCNC(=N)N)NC(=O)[C@@H]1C[C@@H](O)CN1C(=O)[C@@H]1CCCN1C(=O)[C@H](CCCNC(=N)N)NC(=O)[C@@H]1CCCN1C(=O)[C@H](CCCNC(=N)N)NC(=O)[C@@H]1CCCN1C(=O)[C@H](CC(C)C)NC(=O)[C@H](Cc1ccc(O)cc1)NC(=O)[C@@H]1CCCN1C(=O)[C@@H]1CCCN1C(=O)[C@H](CCCCN)NC(=O)[C@H](CC(=O)O)NC(=O)[C@@H](N)C(C)C)C(=O)N[C@@H](Cc1ccc(O)cc1)C(=O)N[C@@H](CC(N)=O)C(=O)N[C@@H](CCCN)C(N)=O [compound 108] (H-VDKPPYLPRPRP[Hyp]R[Hyp]IYN[Orn]-NH2)	2 (≈ 0.862 µM)	–	–	–	–	–	–	–	–	–	–	–	–	–	32 (≈ 13.8 µM)	–	2.5	16 to 32	2 (≈ 0.862 µM)	1 (≈ 0.431 µM)	remaining at 4 h, 0.15 μg/mL [7]: 60%; half-life ([7]; 37° C.): > 4 h
